From article PMC13050480, “Preclinical Development of GT-14, a Novel Inhibitor of Gαi2 Protein: Comprehensive Evaluation of Physicochemical, Metabolic Characteristics and Tissue Distribution” (The AAPS journal, 2025)
In brackets after ≈: the same amount, converted by molar mass. Entries after “also recorded” stand apart in the source; their conditions may differ. Where two headings read alike, the source gives them in different places.

Key:
[1] = Solubility in different solvents, shake-flask method; assay type: physicochemical; settings: room temperature
Procedure: Solubility of GT-14 was assessed in different solvents, namely, water, ethanol, PEG 300, PEG 400, propylene glycol, DMSO, DMA, olive oil, soybean oil, Labrasol and Labrafac, by the shake-flask method. Briefly, an excess amount of GT-14 was added to each of the selected solvents in a scintillation vial. The vials were allowed to shake on a mechanical reciprocating shaker at room temperature for 24 h to achieve solvent saturation. The samples were then centrifuged at 15,000 rpm for 15 min at room temperature. The supernatant with dissolved GT-14 was separated from the pellet of the undissolved compound. It was then diluted and analyzed by UPLC to determine the concentration of GT-14. All experiments were conducted in triplicates.

[2] = pH-dependent stability in USP buffers; assay type: physicochemical; settings: 25°C
Procedure: The pH-dependent stability of GT-14 was assessed in aqueous media of pH ranging from 1 to 10 at room temperature. Standard USP buffers ([11]) were prepared and used for this experiment. Details of buffer solutions are provided in Table I. For the pH solubility profile, GT-14 solid was added in excess amounts in various buffer solutions.
To determine the stability of GT-14 in different buffers, GT-14 stock solution (prepared in ACN at a concentration of 75 μg/mL) was added to different buffers to achieve a target concentration of 5 μg/mL. Each buffer solution was prepared in triplicate. All solutions were put on the shaker bath maintained at 25°C. Aliquots were withdrawn at predetermined time points (0, 24, 72, 96, and 120 hrs), centrifuged at 15,000 rpm for 10 min, diluted with Water: ACN (50:50, v/v), and analyzed by the UPLC assay.

[3] = Phase I biotransformation in rat liver microsomes; assay type: in vitro ADME; settings: rat, 60 min incubation
Procedure: (§1) The in vitro phase I reaction was conducted using rat liver microsome, which contain the cytochrome P450 monooxygenases that catalyze oxidation, reduction, or hydrolysis reactions to introduce or expose functional groups on the substrate. NADPH is the cofactor to provide the reducing equivalents required for enzymatic activity, while the cofactor regeneration systems (NADP^+, glucose-6-phosphate, and glucose-6-phosphate dehydrogenase) maintain a sustained supply of NADPH during the reaction to facilitate the metabolite, Potassium phosphate buffer (KPI) mimics physiological conditions. The components were added to microcentrifuge tubes in the following order: The stock solution GT-14 (5 μL, 1 mM) was pre-incubated with rat liver microsomes (12.5 μL, 20 mg/mL, Corning Inc.) at 37°C in KPI buffer(452.5 μL, 50 mM) for 5 min before the reaction was initiated by the addition of an NADPH regenerating system, which consisted of 25μL of solution A1(1.3 mM NADP+, 3.3 mM glucose-6-phosphate, 3.3 mM magnesium chloride), and 5μL of solution B1 (0.5 units/mL glucose-6-phosphate dehydrogenase). Reaction mixtures were incubated at 37 °C in a shaker bath, shaking at 100 rpm. […] The quenched samples were vortexed, centrifuged (14,000 rpm for 15 min) and analyzed by UPLC.

[4] = tested on: rat liver microsomes; assay: Phase I biotransformation in rat liver microsomes; assay type: in vitro ADME; settings: NADPH regenerating system, 37°C
Procedure: as §1

[5] = Tissue distribution and urinary excretion after IV dose in rats; assay type: in vivo, Sprague Dawley rats
Procedure: Each tissue sample was weighed and homogenized in a clean scintillation vial with 0.9% saline (1:1, w/v) using the VWR 200 Homogenizer to make tissue homogenates. Homogenization was carried out on ice at a speed of 5000 rpm for all tissues except the prostate and kidney (10,000 rpm). A five-point calibration curve was prepared for the different tissues in the range of 0.39–25 ng/g. One hundred (100) μL of tissue homogenate samples were mixed with 10 μL of Griseofulvin (1.5 μg/mL, IS). The samples were vortexed for 30 seconds which was followed by protein precipitation with methanol (300 μL), to extract GT-14. The samples were again vortexed for 30 seconds, and then shaken on an automatic shaker for 5 minutes, followed by centrifugation at 14000 rpm for 20 minutes at 4°C. The supernatant was transferred to a sample vial, and a 5 μL aliquot was injected for LC-MS/MS analysis.
Healthy male Sprague Dawley rats (250–300 g) were used to evaluate the plasma pharmacokinetics and tissue distribution of GT-14, with approved animal protocol from the Institutional Animal Care and Use Committee (IACUC) at Texas Southern University. The jugular vein of rats was cannulated in-house the day before intravenous dosing and blood sample collection. GT-14 was administered intravenously as a co-solvent formulation via the jugular vein cannula at a dose of 5 mg/kg. Serial blood samples (100 μL) were collected up to 24 h post-dose. The blood samples were centrifuged at 3000 rpm for 10 min at 4°C, and plasma was collected and stored at −80°C till analysis. Urine samples were also collected at intervals of 0–7 and 7–24 hrs. using metabolic cages and stored at −20°C until analysis. At 24 hr, animals were sacrificed and organs such as prostate, liver, lungs, spleen, brain, kidneys, and heart were collected, following whole body perfusion (transcardiac perfusion) with normal saline to reduce residual blood in tissues. Plasma and tissue homogenate samples were processed (described in section “Analytical Assay”) and analyzed by LC-MS/MS. Tissue concentrations were calculated using the following formula: Tissueconcentrationng/g=CHTS×VHTS/WTS where, CHTS is the concentration (ng/mL) of GT-14 in the homogenized tissue sample; VHTS is the volume of homogenized tissue sample (mL) and WTS is the weight of tissue sample (g).

[6] = rat, IV 5 mg/kg, 24 hr post dose, 5 mg/kg

solubility at 24 h ([1]; DMA, thermodynamic from solid, n=3, read-out: Solubility in DMA): 107000 µg/mL (≈ 406 mM)
solubility at 24 h ([1]; DMSO, thermodynamic from solid, n=3, read-out: Solubility in DMSO): 80000 µg/mL (≈ 303 mM)
solubility at 24 h ([1]; Labrafac CC (Labrafac Lipophile WL1349), thermodynamic from solid, n=3, read-out: Solubility in Labrafac CC (Labrafac Lipophile WL1349)): 8600 µg/mL (≈ 32.5 mM)
solubility at 24 h ([1]; Labrasol, thermodynamic from solid, n=3, read-out: Solubility in Labrasol): 8100 µg/mL (≈ 30.6 mM)
solubility at 24 h ([1]; PEG 300, thermodynamic from solid, n=3, read-out: Solubility in PEG 300): 17200 µg/mL (≈ 65.1 mM)
solubility at 24 h ([1]; PEG 400, thermodynamic from solid, n=3, read-out: Solubility in PEG 400): 11300 µg/mL (≈ 42.7 mM)
solubility at 24 h ([1]; olive oil, thermodynamic from solid, n=3, read-out: Solubility in olive oil): 11400 µg/mL (≈ 43.1 mM)
solubility at 24 h ([1]; propylene glycol, thermodynamic from solid, n=3, read-out: Solubility in propylene glycol): 5300 µg/mL (≈ 20.1 mM)
Solubility in DMA ([1]; 24 h, n=3): freely soluble
Solubility in DMSO ([1]; 24 h, n=3): freely soluble
Solubility in Labrafac CC (Labrafac Lipophile WL1349) ([1]; 24 h, n=3): slightly soluble
Solubility in PEG 300 ([1]; 24 h, n=3): sparingly soluble
Solubility in PEG 400 ([1]; 24 h, n=3): sparingly soluble
Solubility in olive oil ([1]; 24 h, n=3): sparingly soluble
Solubility in propylene glycol ([1]; 24 h, n=3): slightly soluble
Solubility in soybean oil ([1]; 24 h, n=3): slightly soluble
Solubility in water ([1]; 24 h, n=3): very slightly soluble
solubility at 24 h ([1]; soybean oil, thermodynamic from solid, n=3, read-out: Solubility in soybean oil): 7800 µg/mL (≈ 29.5 mM)
solubility at 24 h ([1]; water, n=3, read-out: Solubility in water): 110 µg/mL (≈ 0.416 mM)
pH stability (in words) ([2]; acidic to neutral pH 1.2–7.4, 120 hours): relatively stable
pH stability, % remaining ([2]; pH 1.2–7.4, up to 120 hours): > 90% remaining
remaining at 1 h, 10 μM [3]: > 90%
drug cleared from plasma ([5]; 24-h time point post single dose injection): ~99%
concentration at 24 h ([5]; male, Sprague Dawley, heart, rat, IV 5 mg/kg, 24 hr post dose, read-out: Tissue concentration, heart): 0.13 ± 0.06 ng/g
concentration at 24 h ([5]; male, Sprague Dawley, kidney, rat, IV 5 mg/kg, 24 hr post dose, read-out: Tissue concentration, kidney): 0.52 ± 0.61 ng/g
concentration at 24 h ([5]; male, Sprague Dawley, liver, rat, IV 5 mg/kg, 24 hr post dose, read-out: Tissue concentration, liver): 0.13 ± 0.01 ng/g
concentration at 24 h ([5]; male, Sprague Dawley, lung, rat, IV 5 mg/kg, 24 hr post dose, read-out: Tissue concentration, lung): 0.55 ± 0.15 ng/g
concentration at 24 h ([5]; male, Sprague Dawley, plasma, rat, IV 5 mg/kg, 24 hr post dose, read-out: Plasma concentration): 9.62 ± 2.82 ng/mL
concentration at 24 h ([5]; male, Sprague Dawley, prostate, rat, IV 5 mg/kg, 24 hr post dose, read-out: Tissue concentration, prostate): 2.19 ± 1.26 ng/g
Kp at 24 h ([5]; male, Sprague Dawley, rat, intravenous, 5 mg/kg, all tissues, 24 hr post dose, read-out: tissue-to-plasma ratios): < 1
GT-14 in urine ([5]; rat, IV 5 mg/kg, urine 0–7 and 7–24 hrs): not detected
SMILES: C/C(=N\c1ccc(O)cc1)c1cc2ccccc2n1C [GT-14, (E)-4-((1-(1-methyl-1H-indol-2-yl)ethylidene)amino)phenol]
pH stability (in words) ([2]; alkaline pH 9–10, 120 hours): significant degradation; also recorded: degrading; also recorded: degradation is significantly pronounced
Phase I metabolism (UPLC peaks) [4]: undergoes Phase I metabolism; also recorded: underwent Phase I metabolism; also recorded: at least four additional peaks appeared
GT-14 in brain [5, 6]: not detected; also recorded: detected in all sampled tissues except the brain
Tissue distribution (rank order, accumulation) [5, 6]: highest concentration of GT-14 in the prostate, followed by the kidneys, lungs, heart, and liver; also recorded: High accumulation in prostate
